Measured values reported in patent publication US20230241038A1, “METHOD OF TREATING RNA REPEAT MEDIATED DISEASES WITH RNA REPEAT BINDING COMPOUND” (AMO Pharma Ltd., priority 2021, published 2023).
Entries after “also recorded” stand apart in the source; their conditions may differ. Read-outs that look alike come from different tables or passages of the source. Values belong to the compound of their own block, whether it stands above or below them.

Experiments:
[1] = biological target: RNA construct containing CUG repeats (RNA hairpin 1; SEQ ID NO:1); assay: MicroScale Thermophoresis (MST) fluorescence binding assay, RNA hairpin 1; details: RNA hairpin 1 (CUG repeats)
Protocol: [The procedure below names another target; the source lists this target under the same test.] This direct binding was determined using a MicroScale Thermophoresis (MST) Fluorescence binding assays with Tideglusib and an RNA hairpin containing CUG repeats. […] MBNL1 has a well characterized role in myotonic dystrophy where impaired RNA splicing disrupts muscle development and function.
The method used for the MST fluorescence assay was as follows. A serial dilution of the ligand (Tideglusib) was prepared in a way to match the final buffer conditions in the reaction mix (assay buffer 20 mM HEPES pH 7.4, 0.05% Tween-20). The highest concentration of ligand was 500 μM and the lowest 15.3 nM. 5 μl of each dilution step were mixed with 5 μl of the fluorescent molecule. The final reaction mixture, which was filled in capillaries, contained a respective amount of ligand (max. conc. 250 μM, min. conc. 7.63 nM) and constant 50 nM fluorescent molecule. The samples were analyzed on a Monolith NT. 115 at 25° C., with 40% LED power and 40% Laser power. The fluorescence labeled RNA construct (RNA hairpin 2; produced by Metabion) had the following sequence: […]

[2] = biological target: RNA construct containing CUG repeats with interspersed interrupting non CUG repeats (RNA hairpin 3; SEQ ID NO:3); assay: MicroScale Thermophoresis (MST) fluorescence binding assay, RNA hairpin 3
[3] = tested on: phosphorylated Akt (pAkt); assay: Phosphorylated Akt in lymphocytes from pediatric subjects with Autism Spectrum Disorder; format: in vivo, human; details: 12 weeks, titrated 400 mg to 1000 mg oral once per day, versus placebo, p<0.0001
Protocol: (§1) In order to determine whether the clinical benefit produced by administration of Tideglusib could be related to inhibition of GSK3β, the activity of this kinase in circulating tissues in treated patients was determined. Lymphocyte cell pellets were lysed in 150 μl of cold NP40 Cell Lysis Buffer with protease inhibitors. Total protein of each extract was measured with DC Protein assay Kit according to the manufacturer specifications. For the analysis of GSK3β and related kinases, the commercially available kits AKT Pathway Total Multispecies 7-Plex Panel and the equivalent for the phosphorylated forms for Luminex® Platform from Thermo Fisher Scientific were used. These were the AKT Pathway (Total) 7-Plex Multispecies Panel (#LHO0002M ThermoFisher Scientific) that assays the following signaling proteins: GSK3β, Total IR, IGF-1R, IRS-1, Akt, PRAS40 and p70s6K. The AKT Pathway (Phospho) 7-Plex Multispecies Panel (#LHO0001M ThermoFisher Scientific) assays the following signaling proteins: GSK3β[pS9], IR[pYpY1162/1163], IGF-1R[pYpY1135/1136], IRS-1[[…]], Akt[pS473], PRAS40[[…]] and […]421/424].

[4] = tested on: RNA construct containing CAG repeats (RNA hairpin 2; SEQ ID NO:2); assay: MicroScale Thermophoresis (MST) fluorescence binding assay, RNA hairpin 2; details: RNA hairpin 2 (CAG repeats)
Protocol: The method used for the MST fluorescence assay was as follows. A serial dilution of the ligand (Tideglusib) was prepared in a way to match the final buffer conditions in the reaction mix (assay buffer 20 mM HEPES pH 7.4, 0.05% Tween-20). The highest concentration of ligand was 500 μM and the lowest 15.3 nM. 5 μl of each dilution step were mixed with 5 μl of the fluorescent molecule. The final reaction mixture, which was filled in capillaries, contained a respective amount of ligand (max. conc. 250 μM, min. conc. 7.63 nM) and constant 50 nM fluorescent molecule. The samples were analyzed on a Monolith NT. 115 at 25° C., with 40% LED power and 40% Laser power. The fluorescence labeled RNA construct (RNA hairpin 2; produced by Metabion) had the following sequence:
Binding to other RNA trinucleotide repeats was investigated by repeating the experimental protocol above with an RNA repeat construct containing CAG repeats (RNA hairpin 2).

[5] = tested on: phosphorylated Akt (pAkt); assay: Phosphorylated Akt (pAkt) levels in lymphocytes from treated Congenital Onset DM1 patients; format: in vivo, human; details: 400 mg or 1000 mg per day, six and twelve weeks of treatment
Protocol: as §1

[6] = tested on: JNK (pJNK); assay: Phosphorylated JNK in lymphocytes from pediatric subjects with Autism Spectrum Disorder; format: in vivo, human; details: 12 weeks, titrated 400 mg to 1000 mg oral once per day, versus placebo
[7] = tested on: patients having DM1; assay: Clinical Global Impression of Improvement in patients having DM1; format: in vivo, human; details: patients having DM1, 400 mg or 1000 mg
[8] = tested on: GSK3β; assay: GSK3β kinase protein levels in lymphocytes from treated Congenital Onset DM1 patients; format: in vivo, human; details: 400 mg or 1000 mg po per day, six and twelve weeks of treatment
Protocol: Lymphocyte cell pellets were lysed in 150 μl of cold NP40 Cell Lysis Buffer with protease inhibitors. Total protein of each extract was measured with DC Protein assay Kit according to the manufacturer specifications. For the analysis of GSK3β and related kinases, the commercially available kits AKT Pathway Total Multispecies 7-Plex Panel and the equivalent for the phosphorylated forms for Luminex® Platform from Thermo Fisher Scientific were used. These were the AKT Pathway (Total) 7-Plex Multispecies Panel (#LHO0002M ThermoFisher Scientific) that assays the following signaling proteins: GSK3β, Total IR, IGF-1R, IRS-1, Akt, PRAS40 and p70s6K. The AKT Pathway (Phospho) 7-Plex Multispecies Panel (#LHO0001M ThermoFisher Scientific) assays the following signaling proteins: GSK3β[pS9], IR[pYpY1162/1163], IGF-1R[pYpY1135/1136], IRS-1[pS312], Akt[pS473], PRAS40[pT246] and p70s6K[pTpS421/424].

[9] = tested on: ERK (pERK); assay: Phosphorylated ERK in lymphocytes from pediatric subjects with Autism Spectrum Disorder; format: in vivo, human; details: 12 weeks, titrated 400 mg to 1000 mg oral once per day, versus placebo

- Kd ([1]; data not shown, read-out: KD): 31.4 µM
Compound: CCn1c(=O)sn(Cc2ccccc2)c1=O [Compound 2, 2-Benzyl-4-ethyl-[1,2,4]thiadiazolidine-3,5-dione]

- Kd ([1]; MST, 25° C., read-out: KD of binding): 0.0197 µM
- Kd ([2]; RNA hairpin 3, CUG repeats with interrupting non CUG repeats, read-out: KD of binding): 3.2 µM
- Kd ([2]; RNA hairpin 3, interspersed non CUG repeats (CCG and CUC), read-out: potency of binding): 3.2 µM
- fold less potent binding versus RNA hairpin 1 ([2]; RNA hairpin 3 versus RNA hairpin 1): 162 fold
- binding to CAG repeat RNA (in words) [4]: No reliable of binding
- effect on GSK3β levels in lymphocytes [8]: Neither dose shows any effect
Compound: O=c1sn(-c2cccc3ccccc23)c(=O)n1Cc1ccccc1 [Tideglusib, 4-Benzyl-2-naphthalen-1-yl-[1,2,4]thiadiazolidine-3,5-dione]
- inhibition of phosphorylation of Akt in lymphocytes [3]: reduces levels of phosphorylation of Akt; also recorded: inhibited phosphorylation of Akt
- effect on phosphorylated Akt (pAkt) levels in lymphocytes [5]: not achieved; also recorded: unable overcome the phosphorylation of Akt
- effect on phosphorylated Akt (pAkt) levels in lymphocytes ([5]; listed as Compound 1): no effect
- inhibition of phosphorylation of JNK in lymphocytes [6]: did not inhibit phosphorylation
- clinical benefit, Clinical Global Impression of Improvement measurement scale [7]: majority of patients having DM1 treated with Tideglusib showed clinical benefit
- effect on GSK3β levels in lymphocytes ([8]; listed as Compound 1): no effect
- inhibition of phosphorylation of ERK in lymphocytes [9]: did not inhibit phosphorylation

- binding to CUG repeat RNA (in words) ([1]; MST): no binding activity
- binding to CUG repeat RNA (in words) ([1]; MST, listed as main metabolite of Tideglusib): No reliable binding
Compound: O=C(NCc1ccccc1)Nc1cccc2ccccc12 [urea derivative of Tideglusib, 1-benzyl-3-naphthalen-1-yl-urea]
